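GI50 marks 50% less growth. TGI: concentration producing complete growth inhibition.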
Columns and labels:
Assay in all cases: NCI-60 cell line screen, 384-well format
LOX IMVI melanoma = system: LOX IMVI melanoma
OVCAR-5 ovarian = system: OVCAR-5 ovarian
SNB-75 CNS = system: SNB-75 CNS
NCI/ADR-RES ovarian = system: NCI/ADR-RES ovarian
U251 glioblastoma = system: U251 glioblastoma
SN12C renal = system: SN12C renal
MOLT-4 leukemia = system: MOLT-4 leukemia
MCF7 breast = system: MCF7 breast
SF-295 CNS = system: SF-295 CNS
MDA-MB-435 melanoma = system: MDA-MB-435 melanoma
DU-145 prostate = system: DU-145 prostate
SK-MEL-5 melanoma = system: SK-MEL-5 melanoma
HCT-15 colon = system: HCT-15 colon
A549 NSCLC = system: A549 NSCLC
786-0 renal = system: 786-0 renal
SR leukemia = system: SR leukemia
OVCAR-8 ovarian = system: OVCAR-8 ovarian
PC-3 prostate = system: PC-3 prostate
UACC-62 melanoma = system: UACC-62 melanoma
EKVX NSCLC = system: EKVX NSCLC
HS 578T breast = system: HS 578T breast
MDA-MB-231 breast = system: MDA-MB-231 breast
NCI-H322M lung = system: NCI-H322M lung
NCI-H226 lung = system: NCI-H226 lung
BT-549 breast = system: BT-549 breast
RXF 393 renal = system: RXF 393 renal
OVCAR-3 ovarian = system: OVCAR-3 ovarian
KM12 colon = system: KM12 colon
NCI-H23 lung = system: NCI-H23 lung
IGROV1 ovarian = system: IGROV1 ovarian
A498 renal = system: A498 renal
UO-31 renal = system: UO-31 renal
OVCAR-4 ovarian = system: OVCAR-4 ovarian
ACHN renal = system: ACHN renal
NCI-H522 lung = system: NCI-H522 lung
HT29 colon = system: HT29 colon
CCRF-CEM leukemia = system: CCRF-CEM leukemia
NCI-H460 NSCLC = system: NCI-H460 NSCLC
HCC-2998 colon = system: HCC-2998 colon
HOP-92 NSCLC = system: HOP-92 NSCLC
K-562 leukemia = system: K-562 leukemia
SK-MEL-28 melanoma = system: SK-MEL-28 melanoma
SW-620 colon = system: SW-620 colon
SF-268 CNS = system: SF-268 CNS
T-47D breast = system: T-47D breast
MDA-MB-468 breast = system: MDA-MB-468 breast
UACC-257 melanoma = system: UACC-257 melanoma
M14 melanoma = system: M14 melanoma
HL-60(TB) leukemia = system: HL-60(TB) leukemia
RPMI-8226 leukemia = system: RPMI-8226 leukemia
COLO 205 colon = system: COLO 205 colon
MALME-3M melanoma = system: MALME-3M melanoma
CAKI-1 renal = system: CAKI-1 renal
TK-10 renal = system: TK-10 renal
SK-OV-3 ovarian = system: SK-OV-3 ovarian
SNB-19 CNS = system: SNB-19 CNS
HOP-62 NSCLC = system: HOP-62 NSCLC
SF-539 CNS = system: SF-539 CNS

`CNc1nc(-c2ccc3c(N)n[nH]c3c2)cc(N2C[C@@H](C(=O)NC3CCCCC3)CC[C@H]2C)n1` showed a GI50 (LOX IMVI melanoma) of 4.8 µM, a TGI (LOX IMVI melanoma) of 17.4 µM and a GI50 (OVCAR-5 ovarian) of 1.64 µM. It also gave a TGI (OVCAR-5 ovarian) of 6.52 µM, a GI50 (SNB-75 CNS) of 1.19 µM and a TGI (SNB-75 CNS) of 13.4 µM. For the same compound, the GI50 (NCI/ADR-RES ovarian) was 13.5 µM, the TGI (NCI/ADR-RES ovarian) was 26.4 µM and the GI50 (U251 glioblastoma) was 10.4 µM. For the same compound, the TGI (U251 glioblastoma) was 22.4 µM, the GI50 (SN12C renal) was 1.9 µM and the TGI (SN12C renal) was 15.5 µM. For the same compound, the GI50 (MOLT-4 leukemia) was 0.545 µM, the TGI (MOLT-4 leukemia) was 1.9 µM and the GI50 (MCF7 breast) was 0.417 µM. For the same compound, the TGI (MCF7 breast) was 2.95 µM, the GI50 (SF-295 CNS) was 4.81 µM and the TGI (SF-295 CNS) was 18.3 µM. It also gave a GI50 (MDA-MB-435 melanoma) of 3.29 µM, a TGI (MDA-MB-435 melanoma) of 16.9 µM and a GI50 (DU-145 prostate) of 10.3 µM. The TGI (DU-145 prostate) was 22.1 µM, the GI50 (SK-MEL-5 melanoma) was 0.798 µM and the TGI (SK-MEL-5 melanoma) was 2.81 µM. For the same compound, the GI50 (HCT-15 colon) was 2.81 µM, the TGI (HCT-15 colon) was 13.9 µM and the GI50 (A549 NSCLC) was 3.78 µM. The TGI (A549 NSCLC) was 16.2 µM, the GI50 ([…]-0 renal) was 3.25 µM and the TGI (786-0 renal) was 13.8 µM. The GI50 (SR leukemia) was 0.475 µM, the TGI (SR leukemia) was 8.48 µM and the GI50 (OVCAR-8 ovarian) was 9.7 µM. The TGI (OVCAR-8 ovarian) was 21.6 µM, the GI50 (PC-3 prostate) was 0.877 µM and the TGI (PC-3 prostate) was 14.7 µM. For the same compound, the GI50 (UACC-62 melanoma) was 1.93 µM, the TGI (UACC-62 melanoma) was 13.5 µM and the GI50 (EKVX NSCLC) was 2.17 µM. It also gave a TGI (EKVX NSCLC) of 15 µM, a GI50 (HS 578T breast) of 1.33 µM and a TGI (HS 578T breast) of 6.42 µM. For the same compound, the GI50 (MDA-MB-231 breast) was 1.91 µM, the TGI (MDA-MB-231 breast) was 16.7 µM and the GI50 (NCI-H322M lung) was 7.92 µM. The TGI (NCI-H322M lung) was 20.7 µM, the GI50 (NCI-H226 lung) was 2.15 µM and the TGI (NCI-H226 lung) was 14 µM. The GI50 (BT-549 breast) was 1.72 µM, the TGI (BT-549 breast) was 13.9 µM and the GI50 (RXF 393 renal) was 2.97 µM. The TGI (RXF 393 renal) was 13 µM, the GI50 (OVCAR-3 ovarian) was 3.45 µM and the TGI (OVCAR-3 ovarian) was 16.7 µM. It also gave a GI50 (KM12 colon) of 10.1 µM, a TGI (KM12 colon) of 21.8 µM and a GI50 (NCI-H23 lung) of 1.86 µM. The TGI (NCI-H23 lung) was 13.2 µM, the GI50 (IGROV1 ovarian) was 2.66 µM and the TGI (IGROV1 ovarian) was 10.1 µM. The GI50 (A498 renal) was 0.666 µM, the TGI (A498 renal) was 7.16 µM and the GI50 (UO-31 renal) was 5.39 µM. It also gave a TGI (UO-31 renal) of 19.4 µM, a GI50 (OVCAR-4 ovarian) of 2.58 µM and a TGI (OVCAR-4 ovarian) of 13.3 µM. The GI50 (ACHN renal) was 4.99 µM, the TGI (ACHN renal) was 20.8 µM and the GI50 (NCI-H522 lung) was 6.52 µM. For the same compound, the TGI (NCI-H522 lung) was 19.9 µM, the GI50 (HT29 colon) was 3.45 µM and the TGI (HT29 colon) was 18 µM. For the same compound, the GI50 (CCRF-CEM leukemia) was 1.04 µM, the TGI (CCRF-CEM leukemia) was 3.12 µM and the GI50 (NCI-H460 NSCLC) was 1.6 µM. It also gave a TGI (NCI-H460 NSCLC) of 13.9 µM, a GI50 (HCC-2998 colon) of 2.73 µM and a TGI (HCC-2998 colon) of 13.9 µM. The GI50 (HOP-92 NSCLC) was 0.99 µM, the TGI (HOP-92 NSCLC) was 6.78 µM and the GI50 (K-562 leukemia) was 4.88 µM. It also gave a TGI (K-562 leukemia) of 17.4 µM, a GI50 (SK-MEL-28 melanoma) of 1.54 µM and a TGI (SK-MEL-28 melanoma) of 12.5 µM. For the same compound, the GI50 (SW-620 colon) was 11.6 µM, the TGI (SW-620 colon) was 24 µM and the GI50 (SF-268 CNS) was 5.21 µM. For the same compound, the TGI (SF-268 CNS) was 19.3 µM, the GI50 (T-47D breast) was 0.0787 µM and the TGI (T-47D breast) was 1.58 µM. The GI50 (MDA-MB-468 breast) was 0.213 µM, the TGI (MDA-MB-468 breast) was 0.997 µM and the GI50 (UACC-257 melanoma) was 1.62 µM. For the same compound, the TGI (UACC-257 melanoma) was 10.5 µM, the GI50 (M14 melanoma) was 1.7 µM and the TGI (M14 melanoma) was 17.8 µM. It also gave a GI50 (HL-60(TB) leukemia) of 1.26 µM, a TGI (HL-60(TB) leukemia) of 2.85 µM and a GI50 (RPMI-8226 leukemia) of 0.471 µM. The TGI (RPMI-8226 leukemia) was 3.49 µM, the GI50 (COLO 205 colon) was 1.56 µM and the TGI (COLO 205 colon) was 11 µM. For the same compound, the GI50 (MALME-3M melanoma) was 0.157 µM, the TGI (MALME-3M melanoma) was 2.01 µM and the GI50 (CAKI-1 renal) was 1.61 µM. For the same compound, the TGI (CAKI-1 renal) was 15.2 µM, the GI50 (TK-10 renal) was 3.15 µM and the TGI (TK-10 renal) was 16.4 µM. The GI50 (SK-OV-3 ovarian) was 1.68 µM, the TGI (SK-OV-3 ovarian) was 12.1 µM and the GI50 (SNB-19 CNS) was 7.1 µM. The TGI (SNB-19 CNS) was 20 µM, the GI50 (HOP-62 NSCLC) was 7.05 µM and the TGI (HOP-62 NSCLC) was 20.3 µM. It also gave a GI50 (SF-539 CNS) of 3.52 µM and a TGI (SF-539 CNS) of 15.8 µM.

Reference: PubChem BioAssay (NCI)
